Literature values in US20120093882A1 (priority 2009, published 2012).

Tests used:
[1] = after oral administration
[2] = dissolved in ultra-pure water, natural midsummer sunlight, maximum of 145 h

SMILES: O=C(O)Cc1ccccc1Nc1c(Cl)cccc1Cl [Diclofenac]
- absorption [1]: almost completely absorbed
- hepatic first-pass metabolism [1]: 50%
- degradation on exposure to sunlight [2]: Fast degradation
